Test results reported in patent US7163960B2, “Treatment and prevention of inflammatory disorders” (Monsanto Technology L.L.C., priority 2002, dated 2007).
Marks after values point to notes of the source that are not given here.

Assays:
Assay type in all cases: in vivo, human
IL-1β = IL-1β synthesis in LPS-treated whole blood; conditions: for IL-1β synthesis in LPS-treated whole blood: mean ± SD
Experimental: (§1) Following a 3-week run-in period, subjects ingested either ALA, SDA, EPA supplied as ethyl esters in capsules. Intakes were 0.75 g/day for 3 weeks followed by 1.5 g/day for the subsequent 3 weeks.
(§2) Blood (4 mL) was added to heparinised tubes, bacterial lipopolysaccharide (LPS) was added (200 ng/mL), and the mixture was incubated at 37° C., 5% CO2, for 24 h. Plasma was collected and assayed for prostaglandin E2 (PGE2) by radioimmunoassay (RIA), interleukin-1β (IL-1β) and tumor necrosis factor-α (TNF-α) by ELISA, as described in Mantzioris et al., supra.

TNF-α = TNF-α synthesis in LPS-treated whole blood; conditions: for TNF-α synthesis in LPS-treated whole blood: mean ± SD
Experimental: as §1, §2

prostaglandin E2 (PGE2) = test: PGE2 synthesis in LPS-stimulated whole blood; conditions: for PGE2 synthesis in LPS-stimulated whole blood: mean ± SD
Experimental: as §1, §2

[1] = Fatty acid analysis of blood cell phospholipids and plasma lipid fractions after ingestion of test fatty acids; conditions: both, human, in vivo
Source text: 45 males and post-menopausal female—19–65 years of age, normolipidemic, and with a body mass index (BMI) in the range 20 to 30, were recruited. Exclusion criteria included bleeding disorders, hypertension, inflammatory disorders, active gastrointestinal diseases, chronic use of low dose aspirin, consumption of restaurant or takeaway evening meals more than twice per week, use of dietary supplements rich in n-3 or n-6 fatty acids, habitual consumption of more than 1 fish meal per month, and plasma phospholipid EPA+DHA levels>7.9% of total fatty acids (level achieved in the study group was 4.9±1.0% of total fatty acids).
as §1
At each visit, 36 mL of blood was taken by venepuncture after an overnight fast. Blood was aliquoted into various tubes for the following procedures.
Blood (20 mL) was added to tubes containing 4 mL 4.5% EDTA in water and 4 mL—6% dextran in normal saline, pH 7.0. Erythrocytes were allowed to sediment under gravity at 37° C. for 30 min. The leucocyte-rich plasma was layered onto LYMPHOPREP, density 1.077 (Nycomed Pharma, Oslo) and centrifuged at 110 g for 10 min to separate leucocytes from the platelets, which were removed. The gradient was further centrifuged at 200 g for 20 min to separate the neutrophils from mononuclear cells, which were removed.
Samples were processed for fatty acid analysis as described in Mantzioris et al., Am. J. Clin. Nutr., 72:42–8 (2000). Plasma, washed platelet and mononuclear cell pellets were stored at −80° C. Erythrocyte pellets were treated fresh with chloroform:isopropanol (2:1) and the lipid extracts stored at 4° C. Plasma, platelet and mononuclear cell pellets were extracted with chloroform:methanol. The cellular and plasma lipid extracts were fractionated by thin-layer chromatography. For the cellular extracts, the phospholipid fraction was retained and for the plasma extracts, the phospholipid, cholesterol ester, and triglyceride fractions were retained. These were transesterified by methanolysis (1% H2SO4 in methanol at 70° C. for 3 h). Fatty acid methyl esters were separated and quantified with a HEWLETT-PACKARD 6890 gas chromatograph equipped with a 50 m capillary column coated with BPX-70 (0.25 μm film thickness; SGE Pty Ltd, Victoria, Australia) (see Mantzioris et al., supra). Fatty acid standards were obtained from NuChek Prep Inc. (Elysian, Minn.) and included stearidonic acid obtained from Sigma Aldrich Pty Ltd. (Castle Hill, NSW, Australia). All organic solvents contained butylated hydroxy anisole (0.005%) as an antioxidant.

[2] = Week 3 (after 0.75 g/day for 3 weeks)
[3] = Week 6 (after 1.5 g/day for 3 weeks)
[4] = Week −3 (start of run-in, before dosing)

CC/C=C\C/C=C\C/C=C\CCCCCCCC(=O)O [ALA, α-linolenic acid]
Effect on LPS-stimulated IL-1β synthesis (IL-1β; 0.75 g/day or 1.5 g/day (either dose)): no effect
IL-1β synthesis in LPS-treated whole blood (IL-1β; Week 0 (baseline)): 96.9 ± 30.9 ng/mL
IL-1β synthesis in LPS-treated whole blood (IL-1β; [2]): 87.3 ± 29.9 ng/mL
IL-1β synthesis in LPS-treated whole blood (IL-1β; [3]): 83.3 ± 24.0 ng/mL
IL-1β synthesis in LPS-treated whole blood (IL-1β; [4]): 97.9 ± 27.4 ng/mL
Effect on LPS-stimulated TNF synthesis (TNF-α; 1.5 g/day): statistically significant decreases
TNF-α synthesis in LPS-treated whole blood (TNF-α; Week 0 (baseline)): 36.8 ± 17.4^a ng/mL
TNF-α synthesis in LPS-treated whole blood (TNF-α; [2]): 32.7 ± 11.9^a ng/mL
TNF-α synthesis in LPS-treated whole blood (TNF-α; [3]): 25.3 ± 7.2^b ng/mL
TNF-α synthesis in LPS-treated whole blood (TNF-α; [4]): 30.9 ± 13.1^a ng/mL
Effect on LPS-stimulated PGE2 synthesis (prostaglandin E2 (PGE2); 1.5 g/day): no change
Effect on LPS-stimulated PGE2 synthesis (prostaglandin E2 (PGE2); Visit 3, following ingestion of 0.75 g): statistically significant increases
PGE2 synthesis in LPS-stimulated whole blood (prostaglandin E2 (PGE2); Week 0 (baseline)): 4.63 ± 2.21^a ng/mL
PGE2 synthesis in LPS-stimulated whole blood (prostaglandin E2 (PGE2); [2]): 6.25 ± 3.00^b ng/mL
PGE2 synthesis in LPS-stimulated whole blood (prostaglandin E2 (PGE2); [3]): 4.30 ± 1.37^a ng/mL
PGE2 synthesis in LPS-stimulated whole blood (prostaglandin E2 (PGE2); [4]): 4.00 ± 1.65^a ng/mL
DHA (% of total fatty acids), Erythrocyte phospholipid ([1]; 0 week): 4.61 ± 0.71^b % of total fatty acids
DHA (% of total fatty acids), Plasma phospholipid ([1]; 0 weeks): 3.64 ± 0.65 % of total fatty acids
DPA (% of total fatty acids), Erythrocyte phospholipid ([1]; 0 weeks): 3:08 ± 0:35 % of total fatty acids
DPA (% of total fatty acids), Plasma phospholipid ([1]; 0 weeks): 1.39 ± 0.26^ab % of total fatty acids
EPA (% of total fatty acids), Monocyte ([1]; 0 weeks): 0.57 (0.11)a % of total fatty acids
EPA (% of total fatty acids), Plasma CE ([1]; 0 weeks): 1.16 (0.33)ab % of total fatty acids
EPA (% of total fatty acids), Plasma Phospholipid ([1]; 0 weeks): 1.16 (0.31)ab % of total fatty acids
EPA (% of total fatty acids), Plasma TG ([1]; 0 weeks): 0.27 (0.12) % of total fatty acids
EPA (% of total fatty acids), Platelet ([1]; 0 weeks): 0.48 (0.11)a % of total fatty acids
EPA (% of total fatty acids), Red Blood ([1]; 0 weeks): 0.88 (0.17)a % of total fatty acids
EPA (% of total fatty acids), Monocyte ([1]; 3 weeks): 0.63 (0.14)a3 % of total fatty acids
EPA (% of total fatty acids), Plasma CE ([1]; 3 weeks): 1.35 (0.58)bc2 % of total fatty acids
EPA (% of total fatty acids), Plasma Phospholipid ([1]; 3 weeks): 1.33 (0.54)bc3 % of total fatty acids
EPA (% of total fatty acids), Plasma TG ([1]; 3 weeks): 0.32 (0.13)2 % of total fatty acids
EPA (% of total fatty acids), Platelet ([1]; 3 weeks): 0.55 (0.14)a2 % of total fatty acids
EPA (% of total fatty acids), Red Blood ([1]; 3 weeks): 0.92 (0.23)a3 % of total fatty acids
EPA (% of total fatty acids), Monocyte ([1]; 6 weeks): 0.81 (0.28)b2 % of total fatty acids
EPA (% of total fatty acids), Plasma CE ([1]; 6 weeks): 1.41 (0.36)c3 % of total fatty acids
EPA (% of total fatty acids), Plasma Phospholipid ([1]; 6 weeks): 1.43 (0.40)c3 % of total fatty acids
EPA (% of total fatty acids), Plasma TG ([1]; 6 weeks): 0.34 (0.16)2 % of total fatty acids
EPA (% of total fatty acids), Platelet ([1]; 6 weeks): 0.64 (0.21)b2 % of total fatty acids
EPA (% of total fatty acids), Red Blood ([1]; 6 weeks): 1.01 (0.18)b3 % of total fatty acids
DHA (% of total fatty acids), Erythrocyte phospholipid ([1]; -3 week): 4.87 ± 0.74^a % of total fatty acids
DHA (% of total fatty acids), Plasma phospholipid ([1]; -3 weeks): 3.70 ± 0.63 % of total fatty acids
DPA (% of total fatty acids), Erythrocyte phospholipid ([1]; -3 weeks): 3.10 ± 0.40 % of total fatty acids
DPA (% of total fatty acids), Plasma phospholipid ([1]; -3 weeks): 1.29 ± 0.18^a % of total fatty acids
EPA (% of total fatty acids), Monocyte ([1]; -3 weeks): 0.67 (0.20)^a % of total fatty acids
EPA (% of total fatty acids), Plasma CE ([1]; -3 weeks): 1.11 (0.26)^a % of total fatty acids
EPA (% of total fatty acids), Plasma Phospholipid ([1]; -3 weeks): 1.07 (0.23)^a % of total fatty acids
EPA (% of total fatty acids), Plasma TG ([1]; -3 weeks): 0.26 (0.08) % of total fatty acids
EPA (% of total fatty acids), Platelet ([1]; -3 weeks): 0.44 (0.12)^a % of total fatty acids
EPA (% of total fatty acids), Red Blood ([1]; -3 weeks): 0.88 (0:16)^a % of total fatty acids
